Where a name gives a salt, the structure may show the parent alone.
Key:
[1] = tested on: phosphatidylserine (PtdS) and Akt; experiment: Translocation of PtdS and Akt to the outer leaflet after HSV-2 (confocal, non-permeabilized); type: cell-based, human; details: HaCat, HSV-2(G)
panel of 393 kinases [2] = molecular target: T1, panel of 393 kinases (Homo sapiens, UniProt P54646); experiment: biochemical; details: control compound
T1 construct: purchased Reaction Biology Corporation

panel of 393 kinases [3] = molecular target: T2, panel of 393 kinases (Homo sapiens, UniProt Q13131); experiment: biochemical; details: control compound
T2 construct: purchased Reaction Biology Corporation
T2 sequence (Q13131 whole entry): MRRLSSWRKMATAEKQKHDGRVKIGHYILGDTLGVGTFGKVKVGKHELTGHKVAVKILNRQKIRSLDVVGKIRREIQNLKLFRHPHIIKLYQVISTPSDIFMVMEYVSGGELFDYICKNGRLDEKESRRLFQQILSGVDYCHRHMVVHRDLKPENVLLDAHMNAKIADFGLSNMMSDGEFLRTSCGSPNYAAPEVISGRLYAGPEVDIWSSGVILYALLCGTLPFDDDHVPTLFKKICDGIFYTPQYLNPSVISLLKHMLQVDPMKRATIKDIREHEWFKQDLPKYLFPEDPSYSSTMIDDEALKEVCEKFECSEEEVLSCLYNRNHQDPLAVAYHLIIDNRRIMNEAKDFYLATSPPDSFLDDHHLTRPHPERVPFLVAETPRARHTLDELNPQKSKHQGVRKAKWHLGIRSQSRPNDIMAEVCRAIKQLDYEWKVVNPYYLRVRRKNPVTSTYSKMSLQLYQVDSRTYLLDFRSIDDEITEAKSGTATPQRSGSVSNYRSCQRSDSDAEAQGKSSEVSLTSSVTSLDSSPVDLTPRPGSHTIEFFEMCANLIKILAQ

HaCat cells = experiment: Cytotoxicity/viability, confluent HaCat cells; type: cell-based, human; details: 10 μM
Method: Results are presented as mean±SEM odu as a percentage of the DMSO control (n=2 independent experiments each conducted in duplicate for C and 1 experiment conducted in duplicate for D). Results in B-D were compared by ANOVA, *p<0.05, **p<0.01, ***p<0.001, ****p<0.0001).
Cell proliferation and viability were determined using the Cell Titer 96® Aqueous One Solution and optical density was determined using a SpectraMax® M5e Molecular Devices multidetection microplate reader. […] The cells were then fixed and stained for activated caspases (red) and SYTOX Green (for integrity of plasma membrane) by Image-iT™ LIVE red Poly Caspase Detection kit. Nuclei were stained with Hoechst. Images were acquired by laser confocal microscope ZeissLive/DuoScan equipped with oil immersion objectives 63×1.1 and captured in an optical slice of 0.37 μm with appropriate filters. Alternatively, immunoblots were prepared and probed with antibodies to cleaved PARP-1 or cleaved caspase 8.

PLSCR1 [4] = experiment: PLSCR1 phosphorylation after HSV-2 (immunoprecipitation/Western); type: cell-based, human; details: 10 μM, HaCat, 30 minutes
PLSCR1 [5] = type: cell-based, monkey; details: Vero, 30 minutes; drugs 10 μM each
panel of 393 kinases [6] = molecular target: T3, panel of 393 kinases (Homo sapiens, UniProt Q9BQI3); experiment: biochemical
T3 construct: purchased Reaction Biology Corporation
T3 sequence (Q9BQI3 whole entry): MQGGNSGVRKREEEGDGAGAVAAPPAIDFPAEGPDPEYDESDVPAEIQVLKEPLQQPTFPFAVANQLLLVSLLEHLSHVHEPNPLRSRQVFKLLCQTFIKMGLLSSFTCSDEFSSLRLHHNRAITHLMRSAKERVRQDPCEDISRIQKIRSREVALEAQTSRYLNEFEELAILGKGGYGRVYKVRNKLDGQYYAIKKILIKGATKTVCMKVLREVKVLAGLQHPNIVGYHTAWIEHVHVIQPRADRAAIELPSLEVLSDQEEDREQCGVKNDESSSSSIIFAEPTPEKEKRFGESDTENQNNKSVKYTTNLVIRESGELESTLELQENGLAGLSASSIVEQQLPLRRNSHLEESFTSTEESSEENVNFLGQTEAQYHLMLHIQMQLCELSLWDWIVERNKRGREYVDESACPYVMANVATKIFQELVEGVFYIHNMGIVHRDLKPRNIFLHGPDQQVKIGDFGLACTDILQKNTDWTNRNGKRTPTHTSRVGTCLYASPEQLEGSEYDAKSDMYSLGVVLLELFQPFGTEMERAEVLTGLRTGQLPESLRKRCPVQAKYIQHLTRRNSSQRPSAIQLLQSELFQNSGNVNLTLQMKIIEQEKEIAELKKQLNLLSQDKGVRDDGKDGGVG

panel of 393 kinases [7] = molecular target: T4, panel of 393 kinases (Homo sapiens, UniProt Q96QT4); experiment: biochemical; details: kinase TRPM7/CHAK1; control compound
T4 construct: purchased Reaction Biology Corporation
T4 sequence (Q96QT4 whole entry): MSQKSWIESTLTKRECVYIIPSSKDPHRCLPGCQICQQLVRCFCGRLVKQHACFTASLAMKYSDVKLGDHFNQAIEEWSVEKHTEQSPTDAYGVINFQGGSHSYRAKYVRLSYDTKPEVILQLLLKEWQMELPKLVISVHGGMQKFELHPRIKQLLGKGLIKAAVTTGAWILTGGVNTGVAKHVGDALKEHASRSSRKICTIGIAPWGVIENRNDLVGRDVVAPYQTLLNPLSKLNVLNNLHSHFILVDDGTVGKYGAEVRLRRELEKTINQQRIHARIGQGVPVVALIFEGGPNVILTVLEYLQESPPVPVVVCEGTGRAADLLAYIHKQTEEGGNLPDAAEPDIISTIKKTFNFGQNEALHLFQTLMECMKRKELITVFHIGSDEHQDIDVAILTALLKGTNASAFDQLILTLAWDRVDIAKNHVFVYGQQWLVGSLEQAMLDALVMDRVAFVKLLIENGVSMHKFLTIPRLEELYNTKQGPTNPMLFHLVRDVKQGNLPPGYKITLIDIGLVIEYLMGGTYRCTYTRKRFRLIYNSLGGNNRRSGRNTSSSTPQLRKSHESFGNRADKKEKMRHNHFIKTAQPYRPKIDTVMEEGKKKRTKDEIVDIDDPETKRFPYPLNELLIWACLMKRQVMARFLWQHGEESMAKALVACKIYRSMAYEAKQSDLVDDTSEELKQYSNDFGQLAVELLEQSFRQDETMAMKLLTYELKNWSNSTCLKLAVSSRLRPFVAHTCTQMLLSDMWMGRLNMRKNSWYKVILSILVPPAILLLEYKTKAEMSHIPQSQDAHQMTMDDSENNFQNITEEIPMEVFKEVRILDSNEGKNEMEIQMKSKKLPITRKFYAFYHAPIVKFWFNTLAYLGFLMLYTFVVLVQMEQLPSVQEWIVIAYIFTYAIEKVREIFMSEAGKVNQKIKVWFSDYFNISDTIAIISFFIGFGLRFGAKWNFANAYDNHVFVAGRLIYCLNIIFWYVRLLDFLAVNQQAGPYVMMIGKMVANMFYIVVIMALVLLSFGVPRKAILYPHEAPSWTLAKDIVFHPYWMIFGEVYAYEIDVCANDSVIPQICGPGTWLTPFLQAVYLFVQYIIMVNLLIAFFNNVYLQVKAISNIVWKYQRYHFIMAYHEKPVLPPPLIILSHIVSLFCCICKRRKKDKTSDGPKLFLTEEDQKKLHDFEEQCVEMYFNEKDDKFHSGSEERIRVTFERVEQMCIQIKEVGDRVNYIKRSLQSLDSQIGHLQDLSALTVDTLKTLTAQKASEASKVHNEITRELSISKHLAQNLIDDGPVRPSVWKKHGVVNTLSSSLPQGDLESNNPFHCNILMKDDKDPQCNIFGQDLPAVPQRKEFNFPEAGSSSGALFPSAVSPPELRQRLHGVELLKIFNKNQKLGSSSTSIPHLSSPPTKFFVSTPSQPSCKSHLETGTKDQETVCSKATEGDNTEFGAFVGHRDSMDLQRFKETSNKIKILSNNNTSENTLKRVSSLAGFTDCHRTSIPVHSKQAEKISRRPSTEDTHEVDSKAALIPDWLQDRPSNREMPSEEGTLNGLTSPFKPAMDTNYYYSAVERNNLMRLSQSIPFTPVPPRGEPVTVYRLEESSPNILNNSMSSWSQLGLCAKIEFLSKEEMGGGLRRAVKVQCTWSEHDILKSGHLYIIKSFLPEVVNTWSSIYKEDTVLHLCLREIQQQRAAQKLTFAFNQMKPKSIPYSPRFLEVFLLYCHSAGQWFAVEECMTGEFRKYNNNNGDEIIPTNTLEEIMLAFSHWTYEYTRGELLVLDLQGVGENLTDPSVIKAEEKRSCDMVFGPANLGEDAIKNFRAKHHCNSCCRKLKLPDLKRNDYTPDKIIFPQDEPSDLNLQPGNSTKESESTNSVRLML

MDCK-MDR1 cells = details: 5 μM
HSV-1 K26GFP = experiment: HSV capsid entry, GFP+ cells by confocal imaging; details: HaCat, 4 h post-temperature shift; CIMSS 10 μM, anti-Akt 2 μg/ml, cycloheximide 10 μg/ml
panel of 393 kinases [8] = molecular target: T5, panel of 393 kinases (Homo sapiens, UniProt Q15118); experiment: biochemical; details: kinase PDK1/PDHK1; control compound
T5 construct: purchased Reaction Biology Corporation
T5 sequence (Q15118 29-436): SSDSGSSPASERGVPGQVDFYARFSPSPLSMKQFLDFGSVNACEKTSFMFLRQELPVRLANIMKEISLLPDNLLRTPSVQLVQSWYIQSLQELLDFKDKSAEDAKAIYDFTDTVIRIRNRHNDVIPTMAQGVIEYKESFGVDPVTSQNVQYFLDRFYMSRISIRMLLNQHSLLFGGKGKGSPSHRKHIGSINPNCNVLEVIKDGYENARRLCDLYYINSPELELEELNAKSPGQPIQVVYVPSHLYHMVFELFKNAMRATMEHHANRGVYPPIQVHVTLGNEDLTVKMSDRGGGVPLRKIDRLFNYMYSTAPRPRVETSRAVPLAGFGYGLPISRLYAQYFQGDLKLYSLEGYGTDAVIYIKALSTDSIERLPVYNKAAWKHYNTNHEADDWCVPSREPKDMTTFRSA

panel of 393 kinases [9] = molecular target: T6, panel of 393 kinases (Homo sapiens, UniProt Q15119); experiment: biochemical; details: kinase PDK2/PDHK2; control compound
T6 construct: purchased Reaction Biology Corporation

panel of 393 kinases [10] = molecular target: T7, panel of 393 kinases (Homo sapiens, UniProt Q15120); experiment: biochemical; details: kinase PDK3/PDHK3; control compound
T7 construct: purchased Reaction Biology Corporation
T7 sequence (Q15120 whole entry): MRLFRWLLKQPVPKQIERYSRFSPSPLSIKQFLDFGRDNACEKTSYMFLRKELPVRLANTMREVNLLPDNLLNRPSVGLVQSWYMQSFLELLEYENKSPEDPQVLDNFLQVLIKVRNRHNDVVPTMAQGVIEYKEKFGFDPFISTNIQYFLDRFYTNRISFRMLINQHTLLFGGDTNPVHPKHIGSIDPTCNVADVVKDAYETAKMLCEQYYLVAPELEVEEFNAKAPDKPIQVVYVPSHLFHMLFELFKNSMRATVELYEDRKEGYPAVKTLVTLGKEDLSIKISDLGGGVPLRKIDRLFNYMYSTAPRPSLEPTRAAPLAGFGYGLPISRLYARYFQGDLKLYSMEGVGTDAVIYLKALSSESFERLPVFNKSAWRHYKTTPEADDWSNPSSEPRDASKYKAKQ

panel of 393 kinases [11] = molecular target: T8, panel of 393 kinases (Homo sapiens, UniProt Q16654); experiment: biochemical; details: kinase PDK4/PDHK4; control compound
T8 construct: purchased Reaction Biology Corporation
T8 sequence (Q16654 whole entry): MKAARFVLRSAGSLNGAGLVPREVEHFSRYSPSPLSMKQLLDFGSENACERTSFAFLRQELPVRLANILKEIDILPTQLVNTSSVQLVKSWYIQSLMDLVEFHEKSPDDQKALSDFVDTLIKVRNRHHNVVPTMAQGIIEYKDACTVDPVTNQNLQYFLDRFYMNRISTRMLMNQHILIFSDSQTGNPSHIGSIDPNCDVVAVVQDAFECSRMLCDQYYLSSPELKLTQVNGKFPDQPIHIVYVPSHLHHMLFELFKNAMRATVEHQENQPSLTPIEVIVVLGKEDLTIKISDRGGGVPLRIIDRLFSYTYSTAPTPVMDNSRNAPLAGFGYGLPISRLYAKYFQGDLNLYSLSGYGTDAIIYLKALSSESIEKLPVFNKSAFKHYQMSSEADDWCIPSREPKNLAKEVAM

[12] = Parallel artificial membrane permeability assay (PAMPA); type: in vitro ADME
[13] = tested on: VSV-S (VSV pseudotyped with SARS-CoV-2 spike protein); type: cell-based

T1 sequence (P54646 whole entry): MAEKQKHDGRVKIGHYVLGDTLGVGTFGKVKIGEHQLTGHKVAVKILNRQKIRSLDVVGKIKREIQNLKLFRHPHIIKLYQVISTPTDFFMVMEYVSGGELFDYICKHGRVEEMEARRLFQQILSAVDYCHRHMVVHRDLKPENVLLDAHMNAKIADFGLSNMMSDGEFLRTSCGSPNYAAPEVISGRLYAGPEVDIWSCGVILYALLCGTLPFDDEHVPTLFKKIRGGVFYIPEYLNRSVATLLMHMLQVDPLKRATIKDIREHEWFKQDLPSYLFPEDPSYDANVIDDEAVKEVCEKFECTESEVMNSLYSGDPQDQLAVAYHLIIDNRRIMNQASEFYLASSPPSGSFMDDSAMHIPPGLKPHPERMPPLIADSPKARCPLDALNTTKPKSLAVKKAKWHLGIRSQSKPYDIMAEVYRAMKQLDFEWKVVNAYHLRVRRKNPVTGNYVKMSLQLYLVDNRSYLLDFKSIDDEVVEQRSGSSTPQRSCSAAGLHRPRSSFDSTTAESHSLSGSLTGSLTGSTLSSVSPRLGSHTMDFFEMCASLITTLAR

In the case of Apyrase, the “detection of PtdS or PLSCR1 at the outer leaflet” value ([1]; 10 U/ml) is reported as “no discernible effect”.
For Ro-31-8220, the IC50 (panel of 393 kinases [2]; kinase AMPK (A2/B1/G3)) was 296 nM, the IC50 (panel of 393 kinases [2]; kinase AMPK(A2/B1/G1)) was 212 nM and the IC50 (panel of 393 kinases [2]; kinase AMPK(A2/B2/G1)) was 97.8 nM. For the same molecule, the IC50 (panel of 393 kinases [2]; kinase AMPK(A2/B2/G2)) was 100 nM, the IC50 (panel of 393 kinases [2]; kinase AMPK(A2/B2/G3)) was 186 nM and the IC50 (panel of 393 kinases [3]; kinase AMPK(A1/B1/G1)) was 66.8 nM. It also gave an IC50 (panel of 393 kinases [3]; kinase AMPK(A1/B1/G2)) of 76.8 nM, an IC50 (panel of 393 kinases [3]; kinase AMPK(A1/B1/G3)) of 179 nM and an IC50 (panel of 393 kinases [3]; kinase AMPK(A1/B2/G1)) of 116 nM.
In the case of `CN[C@@H]1C[C@H]2O[C@@](C)([C@@H]1OC)n1c3ccccc3c3c4c(c5c6ccccc6n2c5c31)C(=O)NC4` [Staurosporine, (9S,10R,11R,13R)-2,3,10,11,12,13-hexahydro-10-methoxy-9-methyl-11-(methylamino)-9,13-epoxy-1H,9H-diindolo[1,2,3-gh:3′,2′,1′-lm]pyrrolo[3,4-j][1,7]benzodiazonin-1-one, reference compound], the cytotoxicity (HaCat cells; confluent HaCat, 72 and 120 hours of exposure) is reported as “completely cytotoxic”, the cytotoxicity (HaCat cells; fully confluent HaCat cells, up to 120 h) is reported as “cytotoxic within 24 h” and the “phosphorylation of PLSCR1 after HSV-2” value (PLSCR1 [4]) is reported as “inhibited”. For the same molecule, the “translocation of PtdS and Akt to the outer leaflet of the plasma membrane” value ([1]; 10 μM) was “inhibited” and the “phosphorylation of PLSCR1 after VSV-S” value (PLSCR1 [5]) was “inhibited”.
Work on `Cn1cc(-c2ccc3c(c2)CCN3C(=O)Cc2cccc(C(F)(F)F)c2)c2c(N)ncnc21` [GSK-2606414] yielded an IC50 (panel of 393 kinases [6]) of 96.2 nM.
With `CCCCCCCCCCCCCCCCn1cc[n+](Cc2ccccc2)c1C` [NH125] the IC50 (panel of 393 kinases [7]) was 23400 nM.
In the case of `C[C@H]1O[C@@H](O[C@H]2[C@@H](O)C[C@H](O[C@H]3[C@@H](O)C[C@H](O[C@H]4CC[C@@]5(C)[C@H](CC[C@@H]6[C@@H]5C[C@@H](O)[C@]5(C)[C@@H](C7=CC(=O)OC7)CC[C@]65O)C4)O[C@@H]3C)O[C@@H]2C)C[C@H](O)[C@@H]1O` [Digoxin], the “Recover %, MDCK Transport” value (MDCK-MDR1 cells) is reported as 96%.
For `C[C@@H]1C[C@@H]([C@H](O)CC2CC(=O)NC(=O)C2)C(=O)[C@@H](C)C1` [cycloheximide, reference compound], the “percentage of GFP+ cells” value (HSV-1 K26GFP) was “significantly reduced”.
Molecule `O=C1Nc2ccc(I)cc2/C1=C/c1cc(Br)c(O)c(Br)c1` [GW5074] has an IC50 (panel of 393 kinases [8]) of 8630 nM, an IC50 (panel of 393 kinases [9]) of 5050 nM and an IC50 (panel of 393 kinases [10]) of 2570 nM. The IC50 (panel of 393 kinases [11]) was 1890 nM.
For `CC(C)NCC(O)COc1cccc2ccccc12` (stereo not drawn) [Propranolol], the “Recover %, PAMPA” value ([12]; 100 μM) was 85%, the “Papp, PAMPA” value ([12]; 100 μM in PBS pH 7.4, 5 hours, room temperature) was 8.991 ×10⁻⁶ cm/s and the “Recover %, MDCK Transport” value (MDCK-MDR1 cells) was 93%.
For `CN(C)C(=O)COC(=O)Cc1ccc(OC(=O)c2ccc(NC(=N)N)cc2)cc1` [camostat mesylate, reference compound], the “VSV-S infection (plaques or viral yields)” value [13] was “inhibited”.
